# pIC50, pKi: −log10 of the molar value.
# Experiments:
# Alpha-glucosidase [1] = target: T1, Alpha-glucosidase (Saccharomyces cerevisiae S288c, UniProt P53341+P38158+P07265); assay: Inhibition of Saccharomyces cerevisiae alpha-glucosidase using p-nitrophenyl-alpha-D-glucopyranoside as substrate preincubated for 15 mins followed by substrate addition and measured after 30 mins by spectrophotometric analysis; assay type: protein assay
# Alpha-glucosidase [2] = target: T1, Alpha-glucosidase; assay: Non-competitive inhibition of Saccharomyces cerevisiae alpha-glucosidase using p-nitrophenyl-alpha-D-glucopyranoside as substrate assessed as inhibition constant preincubated for 15 mins followed by substrate addition and measured after 30 mins by spectrophotometric analysis; assay type: protein assay
# [3] = Inhibition of alpha-glucosidase (unknown origin) using pNPG as substrate preincubated for 15 mins followed by substrate addition and measured after 15 mins by spectrophotometric analysis; parameters: species or system Homo sapiens
# Alpha-glucosidase [4] = target: T1, Alpha-glucosidase; assay: Inhibition of Saccharomyces cerevisiae alpha-glucosidase using p-nitrophenyl-[…]-D-glucopyranoside as substrate preincubated for 15 mins followed by substrate addition and measured after 15 mins by absorbance based microplate reader analysis; assay type: protein assay
# [5] = Competitive inhibition of alpha-glucosidase (unknown origin) using p-nitrophenyl-alpha-D-glucopyranoside as substrate assessed as inhibition constant; parameters: species or system Homo sapiens
# [6] = Inhibition of alpha-glucosidase (unknown origin) using p-nitrophenyl-alpha-D-glucopyranoside as substrate; parameters: species or system Homo sapiens
# Alpha-glucosidase [7] = target: T1, Alpha-glucosidase; assay: (§1) Inhibition of Saccharomyces cerevisiae recombinant alpha-glucosidase using p-nitrophenyl-alpha-D-glucopyranoside as substrate preincubated for 15 mins followed by substrate addition and measured after 30 mins by microplate reader based analysis; assay type: protein assay
# [8] = target: T2, Alpha-glucosidase (Saccharomyces cerevisiae S288c) (UniProt P53341+P38158+P07265); assay: as §1, with “Potency index, ratio of acarbose IC50 to test compound IC50 for inhibition” for “Inhibition”; assay type: protein assay; details: time 45.0 min
# Alpha-glucosidase [9] = target: T1, Alpha-glucosidase; assay: Inhibition of Saccharomyces cerevisiae alpha-glucosidase using pNPG as substrate; assay type: protein assay
# Alpha-glucosidase [10] = target: T1, Alpha-glucosidase; assay: Competitive inhibition of Saccharomyces cerevisiae alpha-glucosidase using pNPG as substrate assessed as inhibition constant; assay type: protein assay
# Homo sapiens [11] = species: Homo sapiens; assay: Potency index, ratio of acarbose IC50 to test compound IC50 for inhibition of alpha-glucosidase (unknown origin) using p-nitrophenyl glucopyranoside as substrate preincubated for 10 mins followed by substrate addition and measured after 30 mins by absorbance based analysis; details: time 40.0 min
# [12] = Inhibition of alpha-glucosidase (unknown origin) using p-nitrophenyl glucopyranoside as substrate preincubated for 10 mins followed by substrate addition and measured after 30 mins by absorbance based analysis; parameters: species or system Homo sapiens
# Alpha-glucosidase [13] = target: T1, Alpha-glucosidase; assay: Inhibition of Saccharomyces cerevisiae alpha-glucosidase using p-nitrophenyl-alpha-D-glucopyranoside as substrate preincubated for 20 mins followed by substrate addition and measured after 30 mins by spectrophotometric analysis; assay type: protein assay
# Alpha-glucosidase [14] = target: T1, Alpha-glucosidase; assay: Non-competitive inhibition of Saccharomyces cerevisiae alpha-glucosidase using p-nitrophenyl-alpha-D-glucopyranoside as substrate assessed as inhibition constant preincubated for 10 mins followed by substrate addition and measured after 30 mins by spectrophotometric analysis; assay type: protein assay
# Alpha-glucosidase [15] = target: T1, Alpha-glucosidase; assay: Inhibition of Saccharomyces cerevisiae alpha-glucosidase using p-nitrophenyl-alpha-D-glucopyranoside as substrate preincubated for 10 mins followed by substrate addition and measured after 30 mins by spectrophotometric analysis; assay type: protein assay
# [16] = Inhibition of alpha-glucosidase (unknown origin) using pNPG as substrate assessed as inhibition constant by spectrophotometric analysis; parameters: species or system Homo sapiens
# [17] = Inhibition of alpha-glucosidase (unknown origin) using pNPG as substrate by spectrophotometric analysis; parameters: species or system Homo sapiens
# Alpha-glucosidase [18] = target: T1, Alpha-glucosidase; assay: Competitive inhibition of Saccharomyces cerevisiae alpha-glucosidase using pNPG as substrate assessed as inhibition constant preincubated for 10 mins followed by substrate addition and measured after 20 mins by spectrophotometric analysis; assay type: protein assay
# [19] = target: T2, Alpha-glucosidase (Saccharomyces cerevisiae S288c); assay: Potency index, ratio of acarbose IC50 to test compound IC50 for inhibition of Saccharomyces cerevisiae alpha-glucosidase using pNPG as substrate preincubated for 10 mins followed by substrate addition and measured after 20 mins by spectrophotometric analysis; assay type: protein assay; details: time 30.0 min
# Alpha-glucosidase [20] = target: T1, Alpha-glucosidase; assay: Inhibition of Saccharomyces cerevisiae alpha-glucosidase using pNPG as substrate preincubated for 10 mins followed by substrate addition and measured after 20 mins by spectrophotometric analysis; assay type: protein assay
# Homo sapiens [21] = species: Homo sapiens; assay: Potency index, ratio of acarbose IC50 to test compound IC50 for inhibition of alpha-glucosidase (unknown origin) using p-nitrophenyl-alpha-D-glucopyranoside as substrate preincubated for 10 mins followed by substrate addition and measured after 20 mins by absorbance based analysis; details: time 30.0 min
# [22] = Inhibition of alpha-glucosidase (unknown origin) using p-nitrophenyl-alpha-D-glucopyranoside as substrate preincubated for 10 mins followed by substrate addition and measured after 20 mins by absorbance based analysis; parameters: species or system Homo sapiens
# Alpha-glucosidase [23] = target: T1, Alpha-glucosidase; assay: Inhibition of Saccharomyces cerevisiae alpha-glucosidase using pNPG as substrate by spectroscopic analysis; assay type: protein assay
# Alpha-glucosidase [24] = target: T1, Alpha-glucosidase; assay: Inhibition of Saccharomyces cerevisiae alpha-glucosidase using p-nitrophenyl-alpha-D-glucopyranoside as substrate preincubated for 15 mins followed by substrate addition and measured after 30 mins by multiplate reader analysis; assay type: protein assay
# [25] = target: T2, Alpha-glucosidase (Saccharomyces cerevisiae S288c); assay: Potency index, ratio of acarbose IC50 to test compound IC50 for inhibition of Saccharomyces cerevisiae alpha-glucosidase using p-nitrophenyl-alpha-D-glucopyranoside as substrate preincubated for 15 mins followed by substrate addition and measured by microplate reader analysis; assay type: protein assay
# Alpha-glucosidase [26] = target: T1, Alpha-glucosidase; assay: Inhibition of Saccharomyces cerevisiae alpha-glucosidase using p-nitrophenyl-alpha-D-glucopyranoside as substrate preincubated for 15 mins followed by substrate addition and measured by microplate reader analysis; assay type: protein assay
compound,measurement,setting,value
O=C(COc1ccc2ccc(=O)oc2c1)N/N=C1\C(=O)N(Cc2ccccc2F)c2ccc(Cl)cc21,IC50,Alpha-glucosidase [1],2.56 µM
same,Ki,Alpha-glucosidase [2],2.04 µM
Cc1nn(-c2ccccc2)c(Cl)c1C1Nc2ccccc2C(=O)N1c1ccc(O)cc1 (stereo not drawn),pIC50,[3],5.59
O=C1Nc2ccc([N+](=O)[O-])cc2C1(c1c[nH]c2ccc(O)cc12)c1c[nH]c2cccc(O)c12 (stereo not drawn),IC50,Alpha-glucosidase [4],67 µM
COc1ccc(-c2[nH]c3c(c2CC#N)c(=O)oc2ccccc23)cc1,pKi,[5],4.31
same,pIC50,[6],4.31
Cn1cc(-c2nnc(-c3ccc(C(c4cn(Cl)c5ccccc45)c4cn(Cl)c5ccccc45)cc3)o2)c2ccccc21,IC50,Alpha-glucosidase [7],2 µM
same,Ratio IC50,[8],400
COc1cc(-c2[nH]c3ccccc3c2/C=N/NC(=S)Nc2ccccc2)cc(OC)c1OC,IC50,Alpha-glucosidase [9],27 µM
same,Ki,Alpha-glucosidase [10],27 µM
O=C(NNS(=O)(=O)c1cc(Cl)c(Cl)cc1Cl)c1ccc2[nH]cc(C(c3ccccc3)c3c[nH]c4ccc(C(=O)NNS(=O)(=O)c5cc(Cl)c(Cl)cc5Cl)cc34)c2c1,Ratio IC50,Homo sapiens [11],8500
same,pIC50,[12],7.00
CC(C)=C(C)CSc1nnc(-c2cc(OCC(F)(F)F)ccc2OCC(F)(F)F)o1,IC50,Alpha-glucosidase [13],46.01 µM
O=C(N/N=C/c1cc(Cl)cc(Cl)c1O)c1nc(-c2cc3ccccc3oc2=O)cs1,Ki,Alpha-glucosidase [14],6.86 µM
same,IC50,Alpha-glucosidase [15],6.24 µM
NS(=O)(=O)c1ccc(Cc2nc(Cc3ccc(S(N)(=O)=O)cc3)nc(-c3cccc([N+](=O)[O-])c3)n2)cc1,pKi,[16],4.38
same,pIC50,[17],4.38
O=C(N/N=C/c1cn(-c2ccccc2)nc1-c1ccc([N+](=O)[O-])cc1)c1cc2ccccc2o1,Ki,Alpha-glucosidase [18],38 µM
same,Ratio IC50,[19],18
same,IC50,Alpha-glucosidase [20],40.6 µM
N#CC(c1c[nH]c2ccc(Br)cc12)c1c[nH]c2ccc(Br)cc12,Ratio IC50,Homo sapiens [21],30
same,pIC50,[22],5.12
Cc1cc(C)cc(CS(=O)(=O)c2ccc(NC(=O)Nc3cccc(Cl)c3)cc2)c1,pKi,[16],7.89
same,pIC50,[17],8.04
Brc1cccc(CSc2nnc(-c3ccc4nc(-c5ccccc5)c(-c5ccccc5)nc4c3)o2)c1,IC50,Alpha-glucosidase [23],0.02847 µM
O=C(Cn1cc(Cn2c3ccccc3c3ccccc32)nn1)c1ccc(O)c(Br)c1,IC50,Alpha-glucosidase [24],1 µM
Oc1cc(-c2cc3cccc(Cl)c3o2)cc(O)c1O,Ratio IC50,[25],167
same,IC50,Alpha-glucosidase [26],0.83 µM

# Source: ChEMBL document CHEMBL5360534, “Synthetic α-glucosidase inhibitors as promising anti-diabetic agents: Recent developments and future challenges” (Eur J Med Chem, 2023)
